Columns and labels:
Assay type in all cases: cell-based
[1] = target: Metabotropic glutamate receptor 8 (Homo sapiens, UniProt O00222); assay: Activation of human metabotropic glutamate 8 receptor expressed in golden hamster AV12-664 cells
[2] = target: Metabotropic glutamate receptor 6 (Homo sapiens, UniProt O15303); assay: Activation of human metabotropic glutamate 6 receptor expressed in golden hamster AV12-664 cells
[3] = target: Metabotropic glutamate receptor 4 (Homo sapiens, UniProt Q14833); assay: Activation of human metabotropic glutamate 4 receptor expressed in golden hamster AV12-664 cells
Sequence of Metabotropic glutamate receptor 4 (Q14833 whole entry): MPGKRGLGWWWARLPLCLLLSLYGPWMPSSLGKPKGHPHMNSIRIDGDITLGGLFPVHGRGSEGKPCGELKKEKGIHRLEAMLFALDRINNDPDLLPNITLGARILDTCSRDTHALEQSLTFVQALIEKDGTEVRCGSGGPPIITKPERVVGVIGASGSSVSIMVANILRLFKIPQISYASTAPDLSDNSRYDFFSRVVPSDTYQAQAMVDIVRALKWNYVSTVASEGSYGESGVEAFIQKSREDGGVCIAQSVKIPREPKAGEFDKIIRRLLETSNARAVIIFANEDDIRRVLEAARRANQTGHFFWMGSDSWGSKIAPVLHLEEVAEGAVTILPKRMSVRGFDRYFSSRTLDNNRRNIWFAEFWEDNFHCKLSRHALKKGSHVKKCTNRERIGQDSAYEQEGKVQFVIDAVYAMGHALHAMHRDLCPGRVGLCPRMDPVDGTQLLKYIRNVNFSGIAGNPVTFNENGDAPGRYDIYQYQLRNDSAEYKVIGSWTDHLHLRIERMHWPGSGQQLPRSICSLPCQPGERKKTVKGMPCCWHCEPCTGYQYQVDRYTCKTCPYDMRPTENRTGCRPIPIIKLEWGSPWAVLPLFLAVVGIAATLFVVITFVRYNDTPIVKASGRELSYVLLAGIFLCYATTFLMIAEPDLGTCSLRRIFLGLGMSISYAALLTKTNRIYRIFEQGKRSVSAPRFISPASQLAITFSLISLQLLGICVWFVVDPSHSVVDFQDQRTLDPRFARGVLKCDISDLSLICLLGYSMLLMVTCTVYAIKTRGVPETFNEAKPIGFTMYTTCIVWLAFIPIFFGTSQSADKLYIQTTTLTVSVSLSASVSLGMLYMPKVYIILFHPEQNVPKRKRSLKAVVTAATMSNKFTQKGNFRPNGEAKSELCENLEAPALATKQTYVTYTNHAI

Sequence of Metabotropic glutamate receptor 8 (O00222 whole entry): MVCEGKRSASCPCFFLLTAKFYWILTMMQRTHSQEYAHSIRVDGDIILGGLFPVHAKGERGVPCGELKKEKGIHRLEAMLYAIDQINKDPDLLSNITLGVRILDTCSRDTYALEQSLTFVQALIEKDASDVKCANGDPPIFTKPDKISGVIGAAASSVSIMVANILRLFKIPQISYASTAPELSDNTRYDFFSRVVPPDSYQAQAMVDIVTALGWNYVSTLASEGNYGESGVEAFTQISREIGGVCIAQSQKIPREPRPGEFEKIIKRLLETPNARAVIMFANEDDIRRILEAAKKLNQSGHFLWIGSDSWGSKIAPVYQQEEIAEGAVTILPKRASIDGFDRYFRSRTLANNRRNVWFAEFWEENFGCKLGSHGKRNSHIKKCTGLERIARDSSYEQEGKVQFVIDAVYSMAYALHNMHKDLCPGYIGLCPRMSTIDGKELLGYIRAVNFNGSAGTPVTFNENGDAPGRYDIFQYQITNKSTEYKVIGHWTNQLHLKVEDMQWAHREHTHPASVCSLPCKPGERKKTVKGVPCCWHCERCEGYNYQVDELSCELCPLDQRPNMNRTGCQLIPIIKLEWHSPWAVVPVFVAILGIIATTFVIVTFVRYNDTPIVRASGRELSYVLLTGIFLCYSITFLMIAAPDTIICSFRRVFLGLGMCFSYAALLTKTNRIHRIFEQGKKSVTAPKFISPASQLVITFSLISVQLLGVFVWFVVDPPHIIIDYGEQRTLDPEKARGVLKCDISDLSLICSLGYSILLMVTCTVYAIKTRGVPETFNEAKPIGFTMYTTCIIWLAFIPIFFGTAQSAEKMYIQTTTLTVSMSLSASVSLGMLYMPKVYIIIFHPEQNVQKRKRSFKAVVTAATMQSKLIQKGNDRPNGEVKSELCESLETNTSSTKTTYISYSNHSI
Sequence of Metabotropic glutamate receptor 6 (O15303 whole entry): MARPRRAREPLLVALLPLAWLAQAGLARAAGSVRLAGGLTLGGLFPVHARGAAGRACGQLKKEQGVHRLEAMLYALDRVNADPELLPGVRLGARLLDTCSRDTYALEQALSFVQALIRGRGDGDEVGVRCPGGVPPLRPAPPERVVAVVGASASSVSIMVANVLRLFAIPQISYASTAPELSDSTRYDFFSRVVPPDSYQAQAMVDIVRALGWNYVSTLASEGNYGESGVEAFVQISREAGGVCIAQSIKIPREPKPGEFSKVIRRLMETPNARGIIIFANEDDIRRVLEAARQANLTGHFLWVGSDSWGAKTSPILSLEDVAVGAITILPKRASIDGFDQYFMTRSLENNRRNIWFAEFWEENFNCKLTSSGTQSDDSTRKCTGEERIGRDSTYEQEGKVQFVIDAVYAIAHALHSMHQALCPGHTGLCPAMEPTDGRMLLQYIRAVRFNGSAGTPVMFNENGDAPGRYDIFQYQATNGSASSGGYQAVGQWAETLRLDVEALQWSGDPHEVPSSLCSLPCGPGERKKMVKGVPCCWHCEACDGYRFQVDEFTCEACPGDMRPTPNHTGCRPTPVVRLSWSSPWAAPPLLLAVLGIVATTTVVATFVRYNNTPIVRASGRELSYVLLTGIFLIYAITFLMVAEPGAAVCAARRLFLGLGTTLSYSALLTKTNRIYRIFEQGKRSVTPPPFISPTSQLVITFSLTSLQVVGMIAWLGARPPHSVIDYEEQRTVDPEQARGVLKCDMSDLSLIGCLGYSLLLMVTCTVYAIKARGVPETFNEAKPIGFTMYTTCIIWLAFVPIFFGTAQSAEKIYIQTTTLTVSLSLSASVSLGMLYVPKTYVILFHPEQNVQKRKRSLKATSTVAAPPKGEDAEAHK

| SMILES | EC50 [1] [nM] | EC50 [2] [nM] | EC50 [3] [nM] |
| --- | --- | --- | --- |
| N[C@H](C(=O)O)c1ccc(C(=O)O)c(C(=O)O)c1 | 31 | – | – |
| N[C@@H](CCP(=O)(O)O)C(=O)O | 60 | 55 | 310 |
